Experimental data published in ChEMBL document CHEMBL2375297, “Coumarins hinged directly on benzimidazoles and their ribofuranosides to inhibit hepatitis C virus” (Eur J Med Chem, 2013).

Assays:
[1] = Selectivity index, ratio of CC50 for human Huh5-2 cells to EC50 for Hepatitis C virus genotype 1b infected in human Huh5-2 cells; assay type: toxicity, cell-based, Huh-5-2; details: read-out: Ratio CC50/EC50
[2] = Cytostatic activity against human Huh5-2 cells after 3 days by MTS method; assay type: cell-based, Huh-5-2
[3] = system: Hepatitis C virus; experiment: Antiviral activity against Hepatitis C virus genotype 1b infected in human Huh5-2 cells assessed as luciferase activity after 4 days by Steady-Glo luciferase assay; assay type: functional, organism-based, Hepacivirus hominis; details: Huh-5-2, 96 h

| Compound | selectivity ratio [1] | CC50 at 72 h [2] | EC50 [3] |
| --- | --- | --- | --- |
| CC(=O)OC[C@H]1O[C@@H](n2c(-c3cc4ccccc4oc3=O)nc3ccccc32)[C@H](OC(C)=O)[C@@H]1OC(C)=O | 1.6 | 98 µM | 60 µM |
| O=c1oc2ccccc2cc1-c1nc2ccccc2n1[C@@H]1O[C@H](CO)[C@@H](O)[C@H]1O | 6.4 | 127 µM | 20 µM |
| O=C(O)c1ccc2[nH]c(-c3cc4cc([N+](=O)[O-])ccc4oc3=O)nc2c1 | 1.5 | 10 µM | 6.9 µM |
| Cc1ccc2[nH]c(-c3c(C)c4ccccc4oc3=O)nc2c1 | 1 | 29 µM | 28 µM |
| Cc1c(-c2nc3cc(F)ccc3[nH]2)c(=O)oc2ccccc12 | 2.2 | 170 µM | 79 µM |
| O=c1oc2ccccc2cc1-c1nc2cc(F)ccc2[nH]1 | 0.15 | 13 µM | 84 µM |
| CC(=O)OC[C@H]1O[C@@H](n2c(-c3c(C)c4ccccc4oc3=O)nc3ccccc32)[C@H](OC(C)=O)[C@@H]1OC(C)=O | 1 | 941 µM | 941 µM |
| Cc1c(-c2nc3ccccc3n2[C@@H]2O[C@H](CO)[C@@H](O)[C@H]2O)c(=O)oc2ccccc12 | 1.1 | 122 µM | 110 µM |
| Cc1c(-c2nc3ccccc3[nH]2)c(=O)oc2ccccc12 | 0.66 | 27 µM | 40 µM |
| O=c1oc2ccccc2cc1-c1nc2cc3ccccc3cc2[nH]1 | 1.3 | 135 µM | 105 µM |
| Cc1ccc2[nH]c(-c3cc4c(ccc5ccccc54)oc3=O)nc2c1 | 14 | 77 µM | 5.5 µM |
| CC(=O)Oc1ccc2c(C)c(-c3nc4ccccc4[nH]3)c(=O)oc2c1 | 1 | 153 µM | 153 µM |
| COc1cccc2cc(-c3nc4cccnc4[nH]3)c(=O)oc12 | 2 | 170 µM | 84 µM |
| O=C(O)c1ccc2[nH]c(-c3cc4ccc(I)cc4oc3=O)nc2c1 | 1 | 118 µM | 118 µM |
| COc1cccc2cc(-c3nc4ccc(C)cc4[nH]3)c(=O)oc12 | 1 | 12 µM | 12 µM |
| Cc1cc2nc(-c3cc4cc(Br)ccc4oc3=O)[nH]c2cc1C | 4.3 | 172 µM | 40 µM |
| O=C(O)c1ccc2[nH]c(-c3cc4ccccc4oc3=O)nc2c1 | 0.32 | 13 µM | 40 µM |
| Cc1cc2nc(-c3cc4ccccc4oc3=O)[nH]c2cc1C | 7.9 | 23 µM | 3 µM |
| Cc1ccc2[nH]c(-c3cc4ccccc4oc3=O)nc2c1 | 1 | 2.3 µM | 2.3 µM |
| Cc1cc2nc(-c3c(C)c4ccccc4oc3=O)[nH]c2cc1C | 2 | 77 µM | 40 µM |
